Measurements reported in article PMC6892925, “Development of Novel Silyl Cyanocinnamic Acid Derivatives as Metabolic Plasticity Inhibitors for Cancer Treatment” (Scientific Reports, 2019).
“Also recorded” adds a separate entry of the source.

How the values were obtained:
Format in all cases: cell-based, human
[1] = test system: MDA-MB-231 cells; test: Mitotracker Red CMXROS fluorescent microscopy; conditions: 30 μM, 24-hour exposure
Method: (§1) To evaluate the effects on mitochondrial morphology and vitality, Mitotracker Red CMXROS (MTR) fluorescence imaging experiments were employed. […] Furthermore, differential interference contrast (DIC) microscope images illustrate substantial membrane blebbing and vesiculation in compound treated cultures (Fig. 6).
(§2) MDA-MB-231 or WiDr cells (5 × 10^4 cells/mL) were seeded in glass-bottom dishes (MatTek Corp, part no. P35G010C) and incubated for 48 hours. Test compound (30 μM) was added and cells were again incubated for 24 hours prior to fluorescent microscopic imaging. In some cultures, MitoTracker Red CMXROS (Invitrogen, M7512, 100 nM) was added 15 min prior to imaging. The growth media was removed and replaced with 5% FBS in 1X PBS for imaging. Cells were then examined and photographed using a Nikon TE2000 epifluorescent microscope and camera. The images shown are representative of at least 3 fields of view of three separate experiments.

[2] = test system: WiDr cells; test: Mitotracker Red CMXROS fluorescent microscopy; conditions: 30 μM, 24-hour exposure
Method: as §1, §2

[3] = test system: MDA-MB-231 cells; test: Western blot analysis of cell damage and death markers
Method: (§3) Owing to the enhanced antiproliferative effects induced by test compound 2a when compared to CHC, western blot analysis of cell damage and death markers was performed. The master transcription factor p53 regulates the expression of numerous genes involved in cancer progression and is responsible for balancing proliferation and apoptosis. In this regard, we evaluated the effects of compound treatment on p53 expression. Literature reports indicate that MDA-MB-231 and WiDr cells express distinct homozygous mutant forms of p53 that promote an aggressive malignant phenotype with resistance to apoptosis[36],[37]. […] Further, PARP1 is involved in the DNA repair pathway through sensing DNA-strand breaks and recruiting repair enzymes. Importantly, PARP1 is a target of caspase cleavage under apoptotic conditions, and the appearance of the PARP1 cleavage product is a widely used indicator of cellular apoptosis. […] Additionally, DNA damage may be a downstream effect of apoptotic nuclease activity or an increase in reactive oxygen species (ROS) from damaged mitochondria; as illustrated in microscopy and seahorse experiments. Histone 2AX phosphorylation (γH2AX) resulting from DNA single- and double-strand breaks is a widely employed marker for DNA damage. In this regard, we investigated the effect of 2a on DNA damage marker γH2AX (phosphorylated Ser139, histone H2AX) with a phospho-specific antibody. […] Due to the potential of ROS leading to DNA damage and H2AX phosphorylation, we investigated the ability of antioxidant N-acetyl cysteine (NAC) to inhibit DNA damage of compound 2a as evidenced by H2AX phosphorylation in the highly oxidative cell line WiDr (Fig. 4A).
(§4) 50,000 WiDr or MDA-MB-231 cells were seeded in 100 mm dishes and were incubated for 48 hours. Cells were then treated with test compounds for 24 hours, washed twice with 1X PBS, solubilized in 200 μL SDS boiling buffer (5% w/v SDS, 10% v/v glycerol, and 60 mM Tris pH 6.8), and sonicated. The resulting cell lysate was then assayed for protein using the Pierce BCA protocol. A volume of test sample containing 10 μg protein was loaded on SDS PAGE gel for electrophoresis according to manufacturer’s instructions. Proteins were transferred from the gel to nitrocellulose membrane according to the manufacturer’s instructions. Membranes were blocked for 1 hr at 35 °C using 10% (w/v) non-fat milk in PBST and were exposed to primary antibody. PARP1 (rabbit polyclonal IgG, Origene, TA321555), p53 (rabbit polyclonal IgG, Santa Cruz, sc50329), and γ-H2AX (Upstate 05-636, 1:2500) were detected and visualized using HRP chemiluminescence. For relative quantitation, β-actin (mouse monoclonal IgG C4, Millipore, MAB1501, 1:10,000) and GAPDH (mouse monoclonal IgG, Santa Cruz, sc47724, 1:100) were detected and measured as a control protein.

[4] = test system: WiDr cells; test: as above; conditions: WiDr
Method: as §3, §4

CC(C)(C)[Si](Oc1ccc(/C=C(\C#N)C(=O)O)cc1)(c1ccccc1)c1ccccc1 [2a]
MTR fluorescence / mitochondrial morphology [1]: more diffuse and dim general cytoplasmic fluorescence; also recorded: substantial redistribution of MTR | MTR fluorescence / mitochondrial morphology [2]: more diffuse and dim general cytoplasmic fluorescence; also recorded: substantial redistribution of MTR | PARP1 cleavage ([3]; 100 μM, 24 hours): induced PARP1 cleavage | expression of γH2AX (DNA damage marker) ([3]; 100 μM, 24 hours): substantial increases | p53 expression ([3]; 24 hours treatment): increase in p53 expression | PARP1 cleavage ([4]; 100 μM, 24 hours): induced PARP1 cleavage | expression of γH2AX (DNA damage marker) ([4]; 100 μM, 24 hours): substantial increases | p53 expression ([4]; 24 hours treatment): not in WiDr
